From ChEMBL document CHEMBL5053528, “Discovery of 2-(Ortho-Substituted Benzyl)-Indole Derivatives as Potent and Orally Bioavailable RORγ Agonists with Antitumor Activity” (J Med Chem, 2021)

How the values were obtained:
[1] = Microsomal stability in human liver microsomes assessed as half life; format: ADME, Microsome
[2] = Volume of distribution in mouse at 2 mg/kg, po; format: ADME, organism-based; conditions: in vivo
[3] = Half life in dog at 0.5 mg/kg, iv; format: ADME, organism-based, Canis lupus familiaris; conditions: in vivo
[4] = Cmax in rat at 2 mg/kg, po; format: ADME, organism-based; design: dose 2 mg/kg, route po; conditions: in vivo
[5] = AUC (0 to t) in rat at 2 mg/kg, po; format: ADME, organism-based; design: dose 2 mg/kg, route po; conditions: in vivo
[6] = Clearance in dog at 0.5 mg/kg, iv; format: ADME, organism-based, Canis lupus familiaris; conditions: in vivo
[7] = Half life in mouse at 1 mg/kg, iv; format: ADME, organism-based; conditions: in vivo
[8] = AUC (0 to t) in rat at 1 mg/kg, iv; format: ADME, organism-based; design: dose 1 mg/kg, route iv; conditions: in vivo
[9] = Half life in rat at 1 mg/kg, iv; format: ADME, organism-based; conditions: in vivo
[10] = Half life in mouse at 2 mg/kg, po; format: ADME, organism-based; conditions: in vivo
[11] = Volume of distribution in dog at 2 mg/kg, po; format: ADME, organism-based, Canis lupus familiaris; conditions: in vivo
[12] = Volume of distribution in mouse at 1 mg/kg, iv; format: ADME, organism-based; conditions: in vivo, read-out: Vd
[13] = AUC (0 to t) in dog at 0.5 mg/kg, iv; format: ADME, organism-based, Canis lupus familiaris; design: dose 0.5 mg/kg, route iv; conditions: in vivo
[14] = Oral bioavailability in dog; format: ADME, organism-based, Canis lupus familiaris; conditions: in vivo
[15] = Clearance in mouse at 1 mg/kg, iv; format: ADME, organism-based; conditions: in vivo
[16] = Drug metabolism in dog plasma assessed as amide hydrolysis metabolite formation at 1 mg/kg, iv; format: ADME, organism-based, Canis lupus familiaris; conditions: in vivo
[17] = Microsomal stability in rat liver microsomes assessed as half life; format: ADME, Microsome
[18] = Cmax in dog at 2 mg/kg, po; format: ADME, organism-based, Canis lupus familiaris; design: dose 2 mg/kg, route po; conditions: in vivo
[19] = Cmax in mouse at 2 mg/kg, po; format: ADME, organism-based; design: dose 2 mg/kg, route po; conditions: in vivo
[20] = AUC (0 to t) in mouse at 1 mg/kg, iv; format: ADME, organism-based; design: dose 1 mg/kg, route iv; conditions: in vivo
[21] = Oral bioavailability in mouse; format: ADME, organism-based; conditions: in vivo
[22] = Oral bioavailability in rat; format: ADME, organism-based; conditions: in vivo
[23] = target: T1, Nuclear receptor ROR-gamma (Homo sapiens, UniProt P51449); assay: Agonist activity at N-terminal GST tagged human RORgamma LBD using fluorescein-D22 as coactivator incubated for 60 mins by Lanthascreen TR-FRET assay
T1 sequence (P51449 whole entry): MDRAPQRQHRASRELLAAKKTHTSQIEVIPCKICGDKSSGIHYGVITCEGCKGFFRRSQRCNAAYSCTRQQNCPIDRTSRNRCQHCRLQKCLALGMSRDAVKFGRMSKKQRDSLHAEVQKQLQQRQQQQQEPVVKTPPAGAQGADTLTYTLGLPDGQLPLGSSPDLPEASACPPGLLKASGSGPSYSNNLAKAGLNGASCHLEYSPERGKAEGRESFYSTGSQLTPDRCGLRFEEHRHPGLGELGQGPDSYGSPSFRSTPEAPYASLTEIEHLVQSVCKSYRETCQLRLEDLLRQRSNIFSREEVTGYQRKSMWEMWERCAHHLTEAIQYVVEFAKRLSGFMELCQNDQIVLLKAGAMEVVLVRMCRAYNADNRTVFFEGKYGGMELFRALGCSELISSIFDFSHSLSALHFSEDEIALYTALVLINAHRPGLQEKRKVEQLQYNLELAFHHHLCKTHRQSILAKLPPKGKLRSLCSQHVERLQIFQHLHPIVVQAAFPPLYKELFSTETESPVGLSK

[24] = Volume of distribution in rat at 1 mg/kg, iv; format: ADME, organism-based; conditions: in vivo
[25] = AUC (0 to t) in mouse at 2 mg/kg, po; format: ADME, organism-based; design: dose 2 mg/kg, route po; conditions: in vivo
[26] = AUC (0 to t) in dog at 2 mg/kg, po; format: ADME, organism-based, Canis lupus familiaris; design: dose 2 mg/kg, route po; conditions: in vivo
[27] = Half life in dog at 2 mg/kg, po; format: ADME, organism-based, Canis lupus familiaris; conditions: in vivo
[28] = target: T1, Nuclear receptor ROR-gamma; assay: Agonist activity at human RORgamma in cytostim stimulated human PBMC cells assessed as increase in differentiation of TH17 cells by measuring IL-17 production preincubated with cytostim for 72 hrs by ELISA; format: cell-based
[29] = Drug metabolism in rat plasma assessed as amide hydrolysis metabolite formation at 1 mg/kg, iv; format: ADME, organism-based; conditions: in vivo
[30] = Drug metabolism in dog liver microsomes assessed as amide hydrolysis metabolite formation at 1 mg/kg, iv; format: ADME, Canis lupus familiaris, Microsome
[31] = Volume of distribution in dog at 0.5 mg/kg, iv; format: ADME, organism-based, Canis lupus familiaris; conditions: in vivo
[32] = Clearance in rat at 1 mg/kg, iv; format: ADME, organism-based; conditions: in vivo
[33] = Drug metabolism in rat liver microsomes assessed as amide hydrolysis metabolite formation at 1 mg/kg, iv; format: ADME, Microsome
[34] = target: T1, Nuclear receptor ROR-gamma; assay: Partial agonist activity at human RORgamma in cytostim stimulated human PBMC cells assessed as […] in differentiation of TH17 cells by measuring IL-17 production preincubated with cytostim for 72 hrs by ELISA; format: cell-based
[35] = target: T2, Nuclear receptor ROR-gamma (Homo sapiens) (UniProt P51449); assay: Partial agonist activity at human RORgamma in cytostim stimulated human PBMC cells assessed as increase in IL-17 production by measuring maximal efficacy preincubated with cytostim for 72 hrs by ELISA relative to control; format: cell-based; conditions: filed as partial agonist
T2 sequence (whole entry): T1 sequence (P51449 whole entry)

CCS(=O)(=O)c1ccc(CNC(=O)c2ccc3c(c2)cc(Cc2ccc(Cl)cc2C(F)(F)F)n3CCF)cc1
half-life [1]: 2.88 h | Vd [2]: 0.569 L/kg | half-life [3]: 0.876 h | Cmax [4]: 6.4 ng/mL | AUC(0-t) [5]: 3.73 ng·h/mL | clearance [6]: 27.2 mL/min/kg | half-life [7]: 2.67 h | AUC(0-t) [8]: 277 ng·h/mL | half-life [9]: 0.86 h | half-life [10]: 3.72 h | Vd [11]: 73.7 L/kg | Vd [12]: 0.193 L/kg | AUC(0-t) [13]: 309 ng·h/mL | bioavailability [14]: 8.33% | clearance [15]: 0.834 mL/min/kg | Drug metabolism [16]: Metabolite_Detected | half-life [17]: 2.1 h | Cmax [18]: 55.9 ng/mL | Cmax [19]: 3270 ng/mL | AUC(0-t) [20]: 20000 ng·h/mL | bioavailability [21]: 47.3% | bioavailability [22]: 0.673% | EC50 [23]: 2 nM | Vd [24]: 4.48 L/kg | AUC(0-t) [25]: 18900 ng·h/mL | AUC(0-t) [26]: 103 ng·h/mL | half-life [27]: 2.14 h | EC50 [28]: 2 nM | Drug metabolism [29]: Metabolite_Detected | Drug metabolism [30]: Metabolite_Detected | Vd [31]: 2.05 L/kg | clearance [32]: 60.2 mL/min/kg | Drug metabolism [33]: Metabolite_Detected

CCc1ccccc1Cc1cc2cc(C(=O)NCc3ccc(S(=O)(=O)CC)cc3)ccc2n1C(C)C
half-life [1]: 0.217 h | EC50 [34]: 2 nM | half-life [17]: 0.2 h | Emax [35]: 79% | EC50 [23]: 25 nM

CCS(=O)(=O)c1ccc(CNC(=O)c2ccc3c(c2)cc(Cc2ccc(F)cc2C(F)(F)F)n3C(C)C)cc1
half-life [1]: 1.2 h | half-life [17]: 1.07 h | EC50 [23]: 14 nM | EC50 [28]: 17 nM
